# Source: paper PMC8699718, “A structurally conserved site in AUP1 binds the E2 enzyme UBE2G2 and is essential for ER-associated degradation” (PLoS Biology, 2021)
# Ends that are not written are not given here.
# B1: UBE2G2: ERAD ubiquitin-conjugating enzyme (E2); purified in vitro, N-terminally MYC-tagged in cells (protein)
# chain: MAGTALKRLMAEYKQLTLNPPEGIVAGPMNEENFFEWEALIMGPEDTCFEFGVFPAILSFPLDYPLSPPKMRFTCEMFHPNIYPDGRVCISILHAPGDDPMGYESSAERWSPVQSVEKILLSVVSMLAEPNDESGANVDASKMWRDDREQFYKIAKQIVQKSLGL
# Key:
# UBE2G2 = assay: CHX chase: UBE2G2 turnover in HT1080 AUP1 KO cells; format: cell-based, human; details: GFP fusion transfected with MYC-UBE2G2, HT1080 AUP1 KO, compared with GFP-SCR
# Experimental: Fig 7 G2BR^AUP1 protects UBE2G2 from degradation. (A) Indicated cells were assessed for steady state levels and turnover of endogenous UBE2G2 by CHX chase. (B) Transcript levels of endogenous UBE2G2 in AUP1 KO cells compared to HT1080 as determined by qPCR. Mean and standard deviation from three independent experiments is shown. […] (D) AUP1 KO cells were transfected with plasmids encoding MYC-UBE2G2 and GFP fusions of either a scrambled G2BR (SCR), G2BR^gp78, or G2BR^AUP1, and the turnover of UBE2G2 was assessed. (E) Relative abundance of gp78 (left panel) and AUP1 (right panel) in HT1080 cells was determined by resolving indicated amounts (in pmoles) of purified GST-gp78 (aa 429 to 611) or GST-AUP1 (aa 61 to 410) fusions alongside approximately 1 × 10^4 cellular equivalents of cell lysate and immunoblotting with gp78 or AUP1 antibodies. For each antibody, the amount of immunoreactivity in the lysate was compared to a defined quantity of a GST fusion protein of gp78 or AUP1 spanning the epitope recognized by the probing antibody. […] The data underlying this figure can be found in S1 and S8 Data. aa, amino acid; AUP1, ancient ubiquitous protein 1; CHX, cycloheximide; G2BR, UBE2G2 Binding Region; KO, knockout; qPCR, quantitative polymerase chain reaction; WT, wild type. […]
# [1] = tested on: NHK (Null Hong Kong variant of alpha1-antitrypsin); assay: CHX chase: NHK degradation in HT1080 UBE2G2 KO cells; format: cell-based, human; details: re-expression in HT1080 UBE2G2 KO
# Experimental: Fig 3 The AUP1–UBE2G2 interaction is required for ERAD. (A) Equimolar amounts of GST-AUP1 (aa 292 to 410) or GST were immobilized on glutathione beads and binding to the indicated in vitro translated ^35S-labeled E2s was assessed. Left panel is 5% of input used for binding. E2s are referred to by their unique alpha-numeric designation (e.g., UBE2G1 and UBE2J1). (B) HT1080 or UBE2G2 KO cells were transfected with INSIG-1-MYC and degradation assessed by CHX chase. […] (D) Cells were transfected with NHK-MYC and HA-ubiquitin and ubiquitination of NHK assessed following proteasome inhibition and IP (right panel). Left panel is 10% of total cell lysate used for IP, indicating no discernable change in total ubiquitination. (E) Levels of endogenous HRD1 were monitored by CHX chase in the indicated cell types. (F) Ubiquitination of endogenous HRD1 was assessed following IP with HRD1 antiserum. Arrow in upper panel indicates migration of unmodified HRD1. […]
# Plasmid transfections were carried out using PolyFect (Qiagen, Germantown, MD, USA) or JetPrime (Polyplus, New York, NY, USA) reagents. […] Clarified lysates or immunoprecipitates were denatured by heating in NuPAGE LDS Sample Buffer with β-mercaptoethanol at 70°C for 10 minutes, resolved on Bis-Tris polyacrylamide gels in NuPAGE MES or MOPS SDS running buffer and analyzed by western blotting. […]
Molecule,UBE2G2 degradation and steady state level (UBE2G2),NHK degradation in UBE2G2 KO cells [1]
"GFP-G2BR^AUP1: GFP fusion of AUP1 aa 378 to 404 (SSWARQESLQERKQALYEYARRRFTER; also: GFP fusion; UniProt Q9Y679 378-404, looked up, fragment)",protected UBE2G2 from degradation and increased the steady state level of this E2,
B1,,restored NHK degradation
